The results in this text go back to patent publication US20090042905A1, “TRIAZOLE DERIVATIVES AS LIGANDS OF G-PROTEIN COUPLED RECEPTORS” (AETERNA ZENTARIS GmbH, priority 2007, published 2009).

This assay relates to male C57BL/6J mice. In words: Fasting-induced feeding behavior (food intake) of mice. The format is in vivo. The note with it: oral dose 2 μmol per mouse, 30 min before food. As to the method: The effectiveness of selected compounds of the invention on fasting-induced feeding behavior of mice was investigated.
The experiments were performed according to Asakawa A et al. (Asakawa A et al., Gut 2003, 52: 947-952) with the following technical details:
Preparation of compounds of the invention: dissolved in dimethylsulfoxide (DMSO) and then diluted in distilled water (i.e. 0.5, 1 and 10% DMSO for 0.5, 1 and 2 μmol/mouse, respectively);
Preparation of reference substance (positive control) sibutramine: dissolved in distilled water;
Control substance (negative vehicle control): 10% DMSO in distilled water (compounds of the invention); distilled water (sibutramine);
Route of administration: p.o.;
Pretreatment time: 30 min before presenting the food to the animals;
Volume of administration: 0.5 ml/mouse;
Animals: male C57BL/6J mice;
Body weight range: 18.3-21.4 g

[1] abbreviates: 20 min, read-out: change of food intake - compounds versus vehicle treated negative control, at 20 min.
The mark [2] stands for this setting: 1 h, read-out: change of food intake - compounds versus vehicle treated negative control, at 1 h.
Setting [3] is: 2 h, read-out: change of food intake - compounds versus vehicle treated negative control, at 2 h.
Where [4] appears, read: 4 h, read-out: change of food intake - compounds versus vehicle treated negative control, at 4 h.

Where two headings read alike, the source gives them in different places.

For `CC(C)(N)C(=O)N[C@H](Cc1c[nH]c2ccccc12)c1nnc(Cc2ccccc2)n1Cc1ccc(Cl)c(Cl)c1` [Compound 118, (R)-N-(1-(4-(3,4-dichlorobenzyl)-5-benzyl-4H-1,2,4-triazol-3-yl)-2-(1H-indol-3-yl)ethyl)-2-amino-2-methylpropanamide], the change in vivo at 2 µmol/mouse runs as follows: under setting [1], -31%; under setting [2], -30%; under setting [3], -25%; under setting [4], -24%.

For `CC(C)(N)C(=O)N[C@H](Cc1c[nH]c2ccccc12)c1nnc(CCCc2c[nH]c3ccccc23)n1Cc1cccc2ccccc12` [Compound 11, (R)-N-(1-(5-(3-(1H-indol-3-yl)propyl)-4-(naphthalen-1-ylmethyl)-4H-1,2,4-triazol-3-yl)-2-(1H-indol-3-yl)ethyl)-2-amino-2-methylpropanamide], the change in vivo at 2 µmol/mouse runs as follows: under setting [1], -56%; under setting [2], -65%; under setting [3], -55%; under setting [4], -55%.

With `COc1ccc(Cn2c(CCc3c[nH]c4ccccc34)nnc2[C@@H](Cc2c[nH]c3ccccc23)NC(=O)C2CCNCC2)c(OC)c1` [Compound 31, (R)-N-(1-(5-(2-(1H-indol-3-yl)ethyl)-4-(2,4-dimethoxybenzyl)-4H-1,2,4-triazol-3-yl)-2-(1H-indol-3-yl)ethyl)piperidine-4-carboxamide], the change in vivo at 2 µmol/mouse under setting [1] was 50%, the change in vivo at 2 µmol/mouse under setting [2] came out at 20%, the change in vivo at 2 µmol/mouse under setting [3] was 16% and the change in vivo at 2 µmol/mouse under setting [4] stood at 9%.

As to `CC(C)(N)C(=O)N[C@H](Cc1c[nH]c2ccccc12)c1nnc(CCc2c[nH]c3ccccc23)n1Cc1ccc(Cl)c(Cl)c1` [Compound 28, (R)-N-(1-(5-(2-(1H-indol-3-yl)ethyl)-4-(3,4-dichlorobenzyl)-4H-1,2,4-triazol-3-yl)-2-(1H-indol-3-yl)ethyl)-2-amino-2-methylpropanamide], the change in vivo at 2 µmol/mouse under setting [1] was -17%, the change in vivo at 2 µmol/mouse under setting [2] is -28%, the change in vivo at 2 µmol/mouse under setting [3] was -21% and the change in vivo at 2 µmol/mouse under setting [4] is -18%.

As for `CC(C)(N)C(=O)N[C@H](Cc1c[nH]c2ccccc12)c1nnc(CCc2ccccc2)n1Cc1ccc(Cl)c(Cl)c1` [Compound 122, (R)-N-(1-(4-(3,4-dichlorobenzyl)-5-phenethyl-4H-1,2,4-triazol-3-yl)-2-(1H-indol-3-yl)ethyl)-2-amino-2-methylpropanamide], the change in vivo at 2 µmol/mouse is, setting by setting: under setting [1], -52%; under setting [2], -42%; under setting [3], -28%; under setting [4], -16%.

Consider `COc1ccc(Cn2c(CCc3ccccc3)nnc2[C@@H](Cc2c[nH]c3ccccc23)NC(=O)[C@H]2CCCCN2)cc1` [Compound 49, (R)-N-((R)-1-(4-(4-methoxybenzyl)-5-phenethyl-4H-1,2,4-triazol-3-yl)-2-(1H-indol-3-yl)ethyl)piperidine-2-carboxamide], for which the change in vivo at 2 µmol/mouse is -59% under setting [1], -48% under setting [2], -39% under setting [3] and -23% under setting [4].

Regarding `COc1ccc(Cn2c(CCc3c[nH]c4ccccc34)nnc2[C@@H](Cc2c[nH]c3ccccc23)NC(=O)C2CCNCC2)cc1` [Compound 45, (R)-N-(1-(5-(2-(1H-indol-3-yl)ethyl)-4-(4-methoxybenzyl)-4H-1,2,4-triazol-3-yl)-2-(1H-indol-3-yl)ethyl)piperidine-4-carboxamide], the change in vivo at 2 µmol/mouse was -36% under setting [1], -28% under setting [2], -33% under setting [3] and -34% under setting [4].

In the case of `CC(C)(N)C(=O)N[C@H](Cc1c[nH]c2ccccc12)c1nnc(CCc2c[nH]c3ccccc23)n1Cc1cccc2ccccc12` [Compound 5, (R)-N-(1-(5-(2-(1H-indol-3-yl)ethyl)-4-(naphthalen-1-ylmethyl)-4H-1,2,4-triazol-3-yl)-2-(1H-indol-3-yl)ethyl)-2-amino-2-methylpropanamide], the change in vivo at 2 µmol/mouse was -56% under setting [1], -58% under setting [2], -53% under setting [3] and -51% under setting [4].

Turning to `COc1ccc(Cn2c(CCc3ccccc3)nnc2[C@@H](Cc2c[nH]c3ccccc23)NC(=O)C(C)(C)N)c(OC)c1` [Compound 179, N-((R)-1-(4-(2,4-dimethoxybenzyl)-5-phenethyl-4H-1,2,4-triazol-3-yl)-2-(1H-indol-3-yl)ethyl)-2-amino-2-methylpropanamide], the change in vivo at 2 µmol/mouse reads like this: under setting [1], -25%; under setting [2], -39%; under setting [3], -40%; under setting [4], -38%.

For `COc1ccc(Cn2c(CCc3ccccc3)nnc2[C@@H](Cc2c[nH]c3ccccc23)NC(=O)c2cnccn2)c(OC)c1` [Compound 66, (R)-N-(1-(4-(2,4-dimethoxybenzyl)-5-phenethyl-4H-1,2,4-triazol-3-yl)-2-(1H-indol-3-yl)ethyl)pyrazine-2-carboxamide], the change in vivo at 2 µmol/mouse reads like this: under setting [1], -56%; under setting [2], -40%; under setting [3], -45%; under setting [4], -51%.

In the case of `COc1ccc(Cn2c(CCc3ccccc3)nnc2[C@@H](Cc2c[nH]c3ccccc23)NC(=O)C2CCNCC2)c(OC)c1` [Compound 62, (R)-N-(1-(4-(2,4-dimethoxybenzyl)-5-phenethyl-4H-1,2,4-triazol-3-yl)-2-(1H-indol-3-yl)ethyl)piperidine-4-carboxamide], the change in vivo at 2 µmol/mouse under setting [1] turned out to be 56%, the change in vivo at 2 µmol/mouse under setting [2] turned out to be 68%, the change in vivo at 2 µmol/mouse under setting [3] is 50% and the change in vivo at 2 µmol/mouse under setting [4] is 26%.

With `O=C(N[C@H](Cc1c[nH]c2ccccc12)c1nnc(CCc2ccccc2)n1-c1ccccc1)C1CCNCC1` [Compound 142, N-((R)-2-(1H-indol-3-yl)-1-(5-phenethyl-4-phenyl-4H-1,2,4-triazol-3-yl)ethyl)piperidine-4-carboxamide], the change in vivo at 2 µmol/mouse under setting [1] is -56%, the change in vivo at 2 µmol/mouse under setting [2] is -57%, the change in vivo at 2 µmol/mouse under setting [3] is -55% and the change in vivo at 2 µmol/mouse under setting [4] is -49%.

Turning to `CC(C)(N)C(=O)N[C@H](Cc1c[nH]c2ccccc12)c1nnc(CCc2ccccc2)n1CCc1ccccc1` [Compound 117, (R)-N-(1-(4,5-diphenethyl-4H-1,2,4-triazol-3-yl)-2-(1H-indol-3-yl)ethyl)-2-amino-2-methylpropanamide], the change in vivo at 2 µmol/mouse is -31% under setting [1], -24% under setting [2], -11% under setting [3] and -6% under setting [4].

`COc1ccc(Cn2c(CCc3c[nH]c4ccccc34)nnc2[C@@H](Cc2c[nH]c3ccccc23)NC(=O)[C@@H]2C=CCN2)cc1` [Compound 190, (2S)-N-((R)-1-(5-(2-(1H-indol-3-yl)ethyl)-4-(4-methoxybenzyl)-4H-1,2,4-triazol-3-yl)-2-(1H-indol-3-yl)ethyl)-2,5-dihydro-1H-pyrrole-2-carboxamide]: the change in vivo at 2 µmol/mouse reads like this: under setting [1], -39%; under setting [2], -30%; under setting [3], -33%; under setting [4], -30%.

For the compound `CC(C)(N)C(=O)N[C@H](Cc1c[nH]c2ccccc12)c1nnc(CCc2ccccc2)n1Cc1cccc2ccccc12` [Compound 27, (R)-N-(2-(1H-indol-3-yl)-1-(4-(naphthalen-1-ylmethyl)-5-phenethyl-4H-1,2,4-triazol-3-yl)ethyl)-2-amino-2-methylpropanamide], the change in vivo at 2 µmol/mouse is -57% under setting [1], -58% under setting [2], -48% under setting [3] and -38% under setting [4].

Regarding `COc1ccc(Cn2c(CCc3ccccc3)nnc2[C@@H](Cc2c[nH]c3ccccc23)NC(=O)[C@@H]2CCCCN2)cc1` [Compound 48, (S)-N-((R)-1-(4-(4-methoxybenzyl)-5-phenethyl-4H-1,2,4-triazol-3-yl)-2-(1H-indol-3-yl)ethyl)piperidine-2-carboxamide], the change in vivo at 2 µmol/mouse runs as follows: under setting [1], -22%; under setting [2], -30%; under setting [3], -27%; under setting [4], -21%.

For `Cc1ccc(Cn2c(CCc3ccccc3)nnc2[C@@H](Cc2c[nH]c3ccccc23)NC(=O)C(C)(C)N)cc1` [Compound 37, (R)-N-(1-(4-(4-methylbenzyl)-5-phenethyl-4H-1,2,4-triazol-3-yl)-2-(1H-indol-3-yl)ethyl)-2-amino-2-methylpropanamide], the change in vivo at 2 µmol/mouse runs as follows: under setting [1], -37%; under setting [2], -49%; under setting [3], -51%; under setting [4], -34%.
